The source of these data is patent US10393751B2, “Specific peptide binders to proteins identified via systematic discovery, maturation and extension process” (Roche […], Inc., priority 2015, dated 2019).

A value given as a limit tells only on which side of the number the result lay.

The term Kd denotes a measure of binding affinity in units of concentration. A high value points to weaker binding.

This test has as its target streptavidin (Streptomyces avidinii, UniProt P22629). Description: Surface Plasmon Resonance (Biacore X100) of synthesized peptides on immobilized streptavidin. It is filed as binding. As to conditions: for KD (equilibrium dissociation constant, kd/ka) / Kd / kon / koff: SPR; for kon: read-out: Ka (association rate constant); for koff: read-out: Kd (dissociation rate constant). From the text:
A selection of streptavidin peptide binders listed in Table 15 were synthesized using standard column-based synthesis techniques by UW Biotechnology center (Madison, Wis.) or by Peptide2.0 (Chantilly, Va.) at 98-99% purity. Strep-tag II peptide NH2-SAWSHPQFEK-COOH was purchased from IBA GmbH (Goettingen, Germany). Synthesized peptides were then characterized by Surface Plasmon Resonance (SPR) to identify binding characteristics including the association rate constant (ks), dissociation rate constant (kd), and equilibrium dissociation rate constant (kd/ka=KD). In one aspect, SPR experiments were performed by using Biacore X100 instrument (GE Healthcare). Preliminarily, 60 μl of 100 μg/ml streptavidin in 10 mM Na-acetate, pH5.0 was immobilized to flow cell 2 (Fc2) of a sensor chip CM5 (GE Healthcare) using Amine Coupling Kit (GE Healthcare) at 20° C. for 6 min. Peptide stock solutions were prepared at 5 or 10 mM concentration in water and diluted in HBS-EP+ (GE Healthcare) buffer before SPR experiments. Peptide binding was performed in a multiple kinetics mode using HBS-EP+ as a running buffer and 0.2 M NaCl, 10 mM NaOH or 10 mM HCl-glycine, […] as regeneration buffer. Binding kinetics parameters were calculated with Biacore X100 software.

[1] abbreviates: streptavidin immobilized on CM5 chip, HBS-EP+ running buffer.
The mark [2] stands for this setting: KD (equilibrium dissociation constant, kd/ka), streptavidin immobilized on CM5 chip, HBS-EP+ running buffer.
Setting [3] is: KD of peptide-streptavidin complex, restated in text from Table 15.

Sequence of streptavidin (P22629 25-183, species assumed): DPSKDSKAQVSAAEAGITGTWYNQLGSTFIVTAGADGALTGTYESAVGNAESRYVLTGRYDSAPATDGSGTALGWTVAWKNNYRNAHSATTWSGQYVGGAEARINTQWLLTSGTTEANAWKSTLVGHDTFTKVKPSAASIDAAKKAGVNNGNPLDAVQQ

In the case of GNSFDDWLASKG [NH2-GNSFDDWLASKG-amide], under setting [1], the “KD (equilibrium dissociation constant, kd/ka)” value is “Irreversible”. Moreover, under “result in words”, the “binding as compared with the parent peptide NSFDDWLAKGG” value is listed as “irreversible binding”.

As for H-ADYLAEYHGG-OH [NH2-ADYLAEYHGG-COOH], the Kd reads like this: under setting [2], 96 ± 5 µM; under setting [3], around 96 µM.

In the case of “H-AFDYLAQYHGG-NH2 [NH2-AFDYLAQYHGG-amide]”, under setting [1], the kon amounted to 23300 M⁻¹ s⁻¹ and the koff stood at 0.0354 s⁻¹.

In the case of “H-AFPDYLAEYHGG-NH2 [NH2-AFPDYLAEYHGG-amide]”, under setting [1], the “KD (equilibrium dissociation constant, kd/ka)” value stood at 0.043 µM; the kon worked out at 30100 M⁻¹ s⁻¹; the koff turned out to be 0.00128 s⁻¹. Moreover, the “KD rank among the streptavidin peptide binders in Table 15” value (result in words) is reported as “lowest KD”.

Turning to H-DPAPAWAHGG-OH [NH2-DPAPAWAHGG-COOH], the dissociation constant (Kd) under setting [2] was above 500 µM.

As to “H-EWVHPQFEQKAK-NH2 [NH2-EWVHPQFEQKAK-amide]”, the “KD as compared with the Strep-Tag II peptide (SEQ ID NO:233)” value (result in words) is recorded as “decreased KD”.

Under setting [3], “H-RDPAPAWAHGGG-NH2 [NH2-RDPAPAWAHGGG-amide]” returned a dissociation constant Kd of around 4.66 µM. Under setting [1], the “KD (equilibrium dissociation constant, kd/ka)” value was determined as 4.66 µM and the kon is 14900 M⁻¹ s⁻¹. In addition, the “change in KD as compared with the parent peptide” value (parent peptide DPAPAWAHGG (SEQ ID NO:242)) is on record as at least 100 fold.

H-WTHPQFEQK-OH [NH2-WTHPQFEQK-COOH]: the “KD as compared with the Strep-Tag II peptide (SEQ ID NO:233)” value (result in words) is given as “decreased KD”.

As for “H-WTHPQFEQPKA-NH2 [NH2-WTHPQFEQPKA-amide]”, for the setting “result in words”, the “KD as compared with the Strep-Tag II peptide (SEQ ID NO:233)” value is listed as “decreased KD”.
